Values joined by “and” are separate entries in the source; they are usually repeats but may differ in a detail not shown here. Equal entries are not always repeated.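 Assay format: 96-well plates, 48-hour exposure. The concentration for 50% growth inhibition is given as GI50. The concentration for full growth arrest is given as TGI.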
What was measured:
Experiment in all cases: growth of human tumour cells (NCI), 48 h
[1] = system: ACHN renal
[2] = system: LOX IMVI melanoma
[3] = system: CAKI-1 renal
[4] = system: SK-OV-3 ovarian
[5] = system: UACC-62 melanoma
[6] = system: SK-MEL-5 melanoma
[7] = system: MOLT-4 leukemia
[8] = system: COLO 205 colon
[9] = system: UO-31 renal
[10] = system: NCI-H226 lung

With `COc1cc2c(N3CCN(C(=O)Nc4ccc(OC(C)C)cc4)CC3)ncnc2cc1OCCCN1CCCCC1` the GI50 [1] was 20.8 µM, the TGI [1] was 55.6 µM and the GI50 [2] was 8.15 µM. The TGI [2] was 23.9 µM, the GI50 [3] was 17.4 µM and the TGI [3] was over 54.9 µM. The GI50 [4] was 18.4 µM, the TGI [4] was 39.9 µM and the GI50 [5] was 15.8 µM. The TGI [5] was 31 µM, the GI50 [6] was 13.2 µM and the TGI [6] was 26 µM. The GI50 [7] was 12.8 µM, the TGI [7] was 61.2 µM and the GI50 [8] was 11.9 µM. The TGI [8] was 26.5 µM, the GI50 [9] was 15.2 µM and the TGI [9] was 40.7 µM. For the same compound, the GI50 [10] was 15.2 µM and the TGI [10] was 45.3 µM.
With `C[C@]12CCC3[C@@H](CCC45OC4C(=O)CC[C@]35C)C1Cc1cnn(-c3ccc(F)cc3)c1N2` (stereo partly drawn) the TGI [1] was over 100 µM, the TGI [2] was 31.9 µM and the TGI [4] was over 100 µM. It also gave a TGI [5] of 68.9 µM, a TGI [6] of over 100 µM and a TGI [7] of 94.7 µM. The TGI [8] was over 100 µM, the TGI [9] was over 100 µM and the TGI [10] was over 100 µM.
Work on `c1ccc(-c2[nH]ncc2-c2ccnc(-c3ccc(OCCn4ccnc4)cc3)c2)nc1` yielded a GI50 [1] of over 25 µM, a TGI [1] of over 25 µM and a GI50 [2] of over 25 µM. It also gave a TGI [2] of over 25 µM, a GI50 [3] of over 25 µM and a TGI [3] of over 25 µM. For the same compound, the GI50 [4] was over 25 µM, the TGI [4] was over 25 µM and the GI50 [5] was over 25 µM. It also gave a TGI [5] of over 25 µM, a GI50 [6] of 8.1 µM and a TGI [6] of over 25 µM. It also gave a GI50 [7] of 10 µM, a TGI [7] of over 25 µM and a GI50 [8] of over 25 µM. It also gave a TGI [8] of over 25 µM, a GI50 [9] of 6.57 µM and a TGI [9] of over 25 µM. The GI50 [10] was over 18.7 µM and the TGI [10] was over 25 µM.
`COC(=O)CCC(NC(=S)N/N=C/c1cccs1)C(=O)OC` (stereo not drawn) gave a TGI [1] of over 100 µM, a TGI [2] of over 100 µM and a TGI [4] of over 100 µM. The TGI [5] was over 100 µM, the TGI [6] was over 100 µM and the TGI [8] was over 100 µM. For the same compound, the TGI [9] was over 100 µM and the TGI [10] was over 100 µM.
`O=C(Nc1ccc(N=C=S)cc1Cl)c1cc(Br)cc(Br)c1O` was tested, and the TGI [1] was 83.8 µM, the TGI [3] was over 100 µM and the TGI [4] was over 100 µM. For the same compound, the TGI [5] was 35.2 µM, the TGI [6] was 46.5 µM and the TGI [7] was 69.4 µM. For the same compound, the TGI [8] was over 100 µM, the TGI [9] was over 100 µM and the TGI [10] was 41.5 µM.
Work on `O=c1cc(O)cc2n1CCC2` yielded a TGI [1] of over 100 µM, a TGI [2] of over 100 µM and a TGI [3] of over 100 µM. It also gave a TGI [4] of over 100 µM, a TGI [5] of over 100 µM and a TGI [6] of over 100 µM. It also gave a TGI [7] of over 100 µM, a TGI [8] of over 100 µM and a TGI [9] of over 100 µM. The TGI [10] was over 100 µM.
In the case of `N#Cc1nc2c(S(=O)(=O)c3ccc(Cl)cc3)c(N)n(Nc3cccc(Cl)c3)c2nc1C#N`, the GI50 [1] is reported as 0.0277 µM, the GI50 [2] is reported as 0.0301 µM and the GI50 [3] is reported as 0.0311 µM. The GI50 [4] was 0.0858 µM, the GI50 [5] was 0.115 µM and the TGI [5] was 0.336 µM. For the same compound, the GI50 [6] was 0.115 µM, the TGI [6] was 0.657 µM and the GI50 [7] was 0.0162 µM. The TGI [7] was 0.103 µM, the GI50 [9] was 0.333 µM and the TGI [9] was over 100 µM. For the same compound, the GI50 [10] was 0.106 µM and the TGI [10] was 0.322 µM and 0.302 µM.
In the case of `Cc1ccc(O)cc1Nc1ccnc2ccc(S(C)(=O)=O)cc12`, the GI50 [1] is reported as 0.612 µM, the TGI [1] is reported as 7.75 µM and the GI50 [2] is reported as 0.516 µM. For the same compound, the TGI [2] was 3.89 µM, the GI50 [3] was 0.74 µM and the TGI [3] was 5.12 µM. It also gave a GI50 [4] of 3.22 µM, a TGI [4] of over 25 µM and a GI50 [5] of 0.843 µM. For the same compound, the TGI [5] was 10.4 µM, the GI50 [6] was 10.4 µM and the TGI [6] was over 25 µM. For the same compound, the GI50 [7] was over 19.8 µM, the TGI [7] was over 25 µM and the GI50 [8] was 0.47 µM. It also gave a TGI [8] of 2.83 µM, a GI50 [9] of 0.496 µM and a TGI [9] of 4.81 µM. The GI50 [10] was 5.05 µM and the TGI [10] was over 23.6 µM.
`Cc1cc([N+](=O)[O-])c(C)c2c1[nH]c1ccc(Cl)cc12` showed a TGI [1] of over 100 µM, a TGI [2] of over 100 µM and a TGI [3] of over 100 µM. The TGI [6] was over 100 µM, the TGI [7] was over 100 µM and the TGI [8] was over 100 µM. For the same compound, the TGI [9] was over 100 µM and the TGI [10] was over 100 µM.
Compound `Cc1nc(N)nc(CCC(=O)Nc2cccc(C(F)(F)F)c2)c1-c1ccc(Cl)cc1` has a TGI [1] of over 100 µM, a TGI [3] of over 100 µM and a TGI [4] of over 100 µM. The TGI [5] was over 100 µM, the TGI [6] was over 100 µM and the TGI [7] was over 100 µM. For the same compound, the TGI [8] was over 100 µM, the TGI [9] was over 100 µM and the TGI [10] was over 100 µM.
Work on `COc1cc(C)c(CC/C(C)=C/Cc2cc(O)ccc2O)c(C)c1C` yielded a TGI [1] of over 25 µM, a TGI [3] of over 25 µM and a TGI [4] of over 25 µM. The TGI [6] was over 25 µM, the TGI [7] was over 25 µM and the TGI [8] was over 25 µM. For the same compound, the TGI [9] was over 25 µM and the TGI [10] was over 25 µM.
`CCOC(=O)c1nc(C)oc1C(F)(F)F` showed a TGI [1] of over 100 µM, a TGI [2] of over 100 µM and a TGI [3] of over 100 µM. For the same compound, the TGI [4] was over 100 µM, the TGI [5] was over 100 µM and the TGI [7] was over 100 µM. It also gave a TGI [8] of over 100 µM, a TGI [9] of over 100 µM and a TGI [10] of over 100 µM.
`COc1ccc(CNc2cnc3ccc(N)cc3n2)cc1` gave a TGI [1] of over 100 µM, a TGI [2] of over 100 µM and a TGI [3] of over 100 µM. The TGI [6] was over 100 µM, the TGI [7] was over 100 µM and the TGI [8] was 34.6 µM. The TGI [9] was over 100 µM and the TGI [10] was over 100 µM.
`CCc1cccc(C)c1NC(=O)CCc1nc(=S)[nH][nH]1` was tested, and the TGI [1] was over 100 µM, the TGI [2] was over 100 µM and the TGI [3] was over 100 µM. For the same compound, the TGI [4] was over 100 µM, the TGI [5] was over 100 µM and the TGI [6] was over 100 µM. For the same compound, the TGI [7] was over 100 µM, the TGI [9] was over 100 µM and the TGI [10] was over 100 µM.
Compound `COc1cc([C@@H]2c3cc4c(cc3[C@@H](NC(=O)c3ccc(C#N)cc3)C3COC(=O)[C@@H]32)OCO4)cc(OC)c1O` (stereo partly drawn) has a TGI [1] of 1.47 µM, a TGI [2] of 2.34 µM and a TGI [3] of 13.2 µM. The TGI [4] was 2.87 µM, the TGI [5] was 2.19 µM and the TGI [7] was 12.4 µM. For the same compound, the TGI [8] was 16.4 µM, the TGI [9] was 15.3 µM and the TGI [10] was 0.508 µM.
With `CN[C@@H](C)C(=O)N[C@H]1CN(S(=O)(=O)c2cccc(S(=O)(=O)N3CC[C@H]4CC[C@@H](C(=O)NC(c5ccccc5)c5ccccc5)N4C(=O)[C@@H](NC(=O)[C@H](C)NC)C3)c2)CC[C@H]2CC[C@@H](C(=O)NC(c3ccccc3)c3ccccc3)N2C1=O` the GI50 [1] was over 79.7 µM, the TGI [1] was over 100 µM and the GI50 [2] was 14.8 µM. The TGI [2] was 36.5 µM, the GI50 [3] was 58.4 µM and the TGI [3] was over 100 µM. For the same compound, the GI50 [5] was 18 µM, the TGI [5] was 38.9 µM and the GI50 [6] was 9.56 µM. The TGI [6] was 34.3 µM, the GI50 [7] was 47 µM and the TGI [7] was over 100 µM. It also gave a GI50 [8] of 15.3 µM, a TGI [8] of 35.2 µM and a GI50 [9] of over 73 µM. It also gave a TGI [9] of over 100 µM, a GI50 [10] of 28.9 µM and a TGI [10] of over 100 µM.
`CCN(CC)Cc1cc(Nc2nc(NC3CCC(N(C)C)CC3)c3ccccc3n2)ccc1OC` (stereo not drawn) showed a GI50 [1] of 11 µM, a TGI [1] of 24.8 µM and a GI50 [3] of 30.9 µM. For the same compound, the TGI [3] was over 100 µM, the GI50 [5] was 13.2 µM and the TGI [5] was 27.2 µM. It also gave a GI50 [6] of 1.54 µM, a TGI [6] of 2.87 µM and a GI50 [7] of 2.34 µM. The TGI [7] was 6.9 µM, the GI50 [8] was 1.5 µM and the TGI [8] was 2.87 µM. It also gave a GI50 [9] of 12.2 µM, a TGI [9] of 27.2 µM and a GI50 [10] of 3.94 µM. The TGI [10] was 16.8 µM.
Work on `COC(=O)/C=C(/C(=O)OC)C1(C)c2cc(C(=O)OC)c(C(=O)OC)c(N)c2C(=N)N1c1ccccc1` (stereo not drawn) yielded a TGI [1] of 48.7 µM, a TGI [2] of 35 µM and a TGI [3] of 56.1 µM. The TGI [4] was over 100 µM, the TGI [5] was 41.2 µM and the TGI [7] was 46.2 µM. For the same compound, the TGI [8] was 29.7 µM, the TGI [9] was 47.1 µM and the TGI [10] was 89.9 µM.

Reference: PubChem BioAssay (NCI)
